Here are results for 16 compounds from US8362000B2, “Azetidinyl diamides as monoacylglycerol lipase inhibitors” (Janssen Pharmaceutica NV, priority 2009, dated 2013).

Substitutions are numbered along the chain they refer to. Read-outs that look alike come from different tables or passages of the source.

The target of experiment [1] is T1, MGL (Rattus norvegicus, UniProt Q8R431).
T1 construct: one g rat brain was homogenized using a Polytron homogenizer; from tissue; host or cells: rat brain homogenate
T1 sequence (Q8R431 1-303): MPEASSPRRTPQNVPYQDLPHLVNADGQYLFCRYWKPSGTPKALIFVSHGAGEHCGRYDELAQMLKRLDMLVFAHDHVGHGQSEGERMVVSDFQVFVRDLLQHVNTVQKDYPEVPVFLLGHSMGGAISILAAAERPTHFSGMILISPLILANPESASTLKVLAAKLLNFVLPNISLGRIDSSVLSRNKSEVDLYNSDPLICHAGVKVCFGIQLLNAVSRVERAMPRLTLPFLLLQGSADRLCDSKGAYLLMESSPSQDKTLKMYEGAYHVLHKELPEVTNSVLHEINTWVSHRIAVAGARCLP
The experiment can be described thus: 2-AG accumulation assay in rat brain homogenate. In kind it is biochemical. The note with it: rat brain homogenate, 2-AG accumulation as percent of vehicle; for 2-AG accumulation, % of vehicle control at 0.1 µM: compound 0.1 μM, read-out: Rat Brain 2AG % VehCntrl (%) @ 0.1 μM; for 2-AG accumulation, % of vehicle control at 1 µM: compound 1 μM, read-out: Rat Brain 2AG % VehCntrl (%) @ 1 μM; for 2-AG accumulation, % of vehicle control at 10 µM: compound 10 μM, read-out: Rat Brain 2AG % VehCntrl (%) @ 10 μM.

In experiment [2] the target is T2, mutant MGL (Homo sapiens, UniProt Q99685, L169S/L176S).
T2 sequence (Q99685 1-303 L169S/L176S): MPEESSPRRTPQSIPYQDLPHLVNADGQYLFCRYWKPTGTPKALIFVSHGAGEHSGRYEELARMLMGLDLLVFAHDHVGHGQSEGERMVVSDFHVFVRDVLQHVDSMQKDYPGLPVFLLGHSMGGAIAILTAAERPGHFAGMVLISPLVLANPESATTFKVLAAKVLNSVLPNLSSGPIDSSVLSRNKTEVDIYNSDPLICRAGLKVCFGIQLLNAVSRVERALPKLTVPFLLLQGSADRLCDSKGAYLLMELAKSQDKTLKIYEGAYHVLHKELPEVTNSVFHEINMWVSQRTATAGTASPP
Put plainly: MGL ThermoFluor assay - mutant. The class given is binding. Background: Differential scanning fluorimetry follows unfolding on heating by fluorescence.

The test system of experiment [3] is CFA-induced paw radiant heat hypersensitivity. The experiment can be described thus: CFA-induced paw radiant heat hypersensitivity. In kind it is in vivo, rat. The note with it: Rattus norvegicus, po, 30 mg/kg p.o., HPβCD, last time point 180 or 300 min.
Experiment [4] concerns the target T3, purified wild type MGL (wt-MGLL 6H-11-313) (Homo sapiens, UniProt Q99685).
T3 sequence (Q99685 1-303): T2 sequence (Q99685 1-303 L169S/L176S) with S169L, S176L

Setting [5] is: ThermoFluor thermal stability binding assay, read-out: MGL mutant ThermoFluor Kd.
Setting [6] is: group mean values, read-out: CFA thermal hypersensitivity Method 1: peak % reversal.
Setting [7] is: individual animal values, read-out: CFA thermal hypersensitivity Method 2: peak % reversal.
Setting [8] is: ThermoFluor concentration-response, read-out: MGL mutant ThermoFluor Kd.

As to `O=C(c1ccc(-c2cccc(C(F)(F)F)c2)cc1)N1CC(N2CCN(C(=O)c3cscn3)CC2)C1` [Cpd 229, 1-(1,3-Thiazol-4-ylcarbonyl)-4-(1-{[3′-(trifluoromethyl)biphenyl-4-yl]carbonyl}azetidin-3-yl)piperazine], in experiment [1], the 2-AG accumulation, % of vehicle control at 0.1 µM turned out to be 276% and the 2-AG accumulation, % of vehicle control at 1 µM was 552%. In addition, the Kd in experiment [2] (setting [5]) was 0.0125 µM. The inhibition in vivo at 30 mg/kg in experiment [3] (setting [6]) was 55.8%. Also, the inhibition in vivo at 30 mg/kg in experiment [3] (setting [7]) was found to be 56.6%. Besides, the IC50 in experiment [4] is less than 0.005 µM.
As to `O=C(c1cscn1)N1CCN(C2CN(C(=O)c3sc4c(F)c(C(F)(F)F)ccc4c3Cl)C2)CC1` [Cpd 670], in experiment [1], the 2-AG accumulation, % of vehicle control at 1 µM amounted to 650%. Moreover, the Kd in experiment [2] (setting [5]) was 0.001 µM; in experiment [2] (ThermoFluor, compound concentration measured by qNMR, read-out: MGL mutant ThermoFluor qKd (μM) (using qNMR conc.)), 0.001 µM. Further, in experiment [3] (setting [6]), the inhibition in vivo at 30 mg/kg stood at 20.9%. This compound also had an IC50 in experiment [4] of 0.015 µM.
As for `O=C(c1ccc(-c2cccc(C(F)(F)F)c2)c(Cl)c1)N1CC(N2CCN(C(=O)c3cscn3)CC2)C1` [Cpd 1102, 1-(1-{[2-Chloro-3′-(trifluoromethyl)biphenyl-4-yl]carbonyl}azetidin-3-yl)-4-(1,3-thiazol-4-ylcarbonyl)piperazine], the 2-AG accumulation, % of vehicle control at 1 µM in experiment [1] is 878%. Moreover, the Kd in experiment [2] (setting [5]) turned out to be 0.006 µM. Moreover, the inhibition in vivo at 30 mg/kg in experiment [3] (setting [6]) stood at 38%; in experiment [3] (setting [7]), 45.3%. In addition, the IC50 in experiment [4] was 0.013 µM.
`Cc1nc(-c2cccc(Cl)c2)sc1C(=O)N1CC(N2CCN(C(=O)c3nccs3)CC2)C1` [Cpd 490, 1-(1-{[2-(3-Chlorophenyl)-4-methyl-1,3-thiazol-5-yl]carbonyl}azetidin-3-yl)-4-(1,3-thiazol-2-ylcarbonyl)piperazine]: the 2-AG accumulation, % of vehicle control at 0.01 µM in experiment [1] (compound 0.01 μM, read-out: Rat Brain 2AG % VehCntrl (%) @ 0.01 μM) turned out to be 208%. For the same compound, in experiment [1], the 2-AG accumulation, % of vehicle control at 0.1 µM came out at 343%; the 2-AG accumulation, % of vehicle control at 1 µM is 756%; the 2-AG accumulation, % of vehicle control at 10 µM amounted to 886%. In addition, the Kd in experiment [2] (setting [8]) was determined as 0.0084 µM. The inhibition in vivo at 30 mg/kg in experiment [3] (setting [6]) worked out at 18.4%. For the same compound, the inhibition in vivo at 30 mg/kg in experiment [3] (setting [7]) was 19.7%. In experiment [4], this compound came in with an IC50 of 0.0223 µM.
Turning to `O=C(c1cscn1)N1CCN(C2CN(C(=O)c3ccc(-c4cccc(C(F)(F)F)c4)cc3Cl)C2)CC1` [Cpd 251, 1-(1-{[3-Chloro-3′-(trifluoromethyl)biphenyl-4-yl]carbonyl}azetidin-3-yl)-4-(1,3-thiazol-4-ylcarbonyl)piperazine], in experiment [1], the 2-AG accumulation, % of vehicle control at 0.1 µM came out at 144%; the 2-AG accumulation, % of vehicle control at 1 µM came to 586%; the 2-AG accumulation, % of vehicle control at 10 µM is 791%. Besides, the Kd in experiment [2] (setting [5]) worked out at 0.0143 µM. Further, the inhibition in vivo at 30 mg/kg in experiment [3] (setting [6]) stood at 35.1%. The inhibition in vivo at 30 mg/kg in experiment [3] (setting [7]) amounted to 38.5%. For the same compound, it took 0.017 µM to reach half-maximal inhibition in experiment [4] (IC50).
Regarding `O=C(c1ccc(Oc2ncc(C(F)(F)F)cc2Cl)cc1)N1CC(N2CCN(C(=O)c3nccs3)CC2)C1` [Cpd 663], the 2-AG accumulation, % of vehicle control at 1 µM in experiment [1] is 588%. The Kd in experiment [2] (setting [8]) stood at 0.02 µM. Further, the inhibition in vivo at 30 mg/kg in experiment [3] (setting [6]) is 33.9%. The compound further came in with an IC50 in experiment [4] of 0.011 µM.
For `O=C(c1cccc(-c2ccc(F)cc2F)c1)N1CC(N2CCN(C(=O)c3nccs3)CC2)C1` [Cpd 1117, 1-{1-[(2′,4′-Difluorobiphenyl-3-yl)carbonyl]azetidin-3-yl}-4-(1,3-thiazol-2-ylcarbonyl)piperazine], in that order: 437%, 0.214 µM, 23.2% and 0.016 µM.
As to `O=C(c1cscn1)N1CCN(C2CN(C(=O)c3ccc(-c4ccc(Cl)c(C(F)(F)F)c4)cc3Cl)C2)CC1` [Cpd 266, 1-(1-{[3,4′-Dichloro-3′-(trifluoromethyl)biphenyl-4-yl]carbonyl}azetidin-3-yl)-4-(1,3-thiazol-4-ylcarbonyl)piperazine], in experiment [1], the 2-AG accumulation, % of vehicle control at 1 µM worked out at 395%. Besides, the Kd in experiment [2] (setting [5]) came to 0.016 µM. The inhibition in vivo at 30 mg/kg in experiment [3] (setting [6]) was 50.5%; in experiment [3] (setting [7]), 56.1%. In experiment [4], this compound had an IC50 of 0.0498 µM.
`Cc1c(C(=O)N2CC(N3CCN(C(=O)c4cscn4)CC3)C2)sc2cc(C(F)(F)F)ccc12` [Cpd 674, 1-(1-{[3-Methyl-6-(trifluoromethyl)-1-benzothiophen-2-yl]carbonyl}azetidin-3-yl)-4-(1,3-thiazol-4-ylcarbonyl)piperazine]: the 2-AG accumulation, % of vehicle control at 1 µM in experiment [1] came to 891%. Besides, the Kd in experiment [2] (setting [8]) stood at 0.003 µM. Moreover, the inhibition in vivo at 30 mg/kg in experiment [3] (setting [6]) stood at 57.7%. Also, half-maximal inhibition in experiment [4] (IC50) required 0.019 µM.
As to `O=C(c1cscn1)N1CCN(C2CN(C(=O)c3sc4cc(Br)ccc4c3Cl)C2)CC1` [Cpd 333, 1-{1-[(6-Bromo-3-chloro-1-benzothiophen-2-yl)carbonyl]azetidin-3-yl}-4-(1,3-thiazol-4-ylcarbonyl)piperazine], the 2-AG accumulation, % of vehicle control at 1 µM in experiment [1] is 291%. In addition, in experiment [2] (setting [5]), the Kd was determined as 0.0039 µM. Moreover, the inhibition in vivo at 30 mg/kg in experiment [3] (setting [6]) is 27.7%. Besides, half-maximal inhibition in experiment [4] (IC50) required 0.0162 µM.
With `O=C(c1ccc2c(ccn2-c2ccc(F)c(F)c2)c1)N1CC(N2CCN(C(=O)c3nccs3)CC2)C1` [Cpd 1362, 1-(3,4-Difluorophenyl)-5-({3-[4-(1,3-thiazol-2-ylcarbonyl)piperazin-1-yl]azetidin-1-yl}carbonyl)-1H-indole], the 2-AG accumulation, % of vehicle control at 1 µM in experiment [1] was 635%. Also, the Kd in experiment [2] (setting [8]) was 0.001 µM. Besides, in experiment [3] (setting [6]), the inhibition in vivo at 30 mg/kg turned out to be 186%. The same compound yielded an IC50 in experiment [4] of less than 0.005 µM.
For `O=C(c1ccccc1)N1CCN(C2CN(C(=O)c3ccc(-c4ccc(Cl)c(Cl)c4)cc3)C2)CC1` [Cpd 39, 1-{1-[(3′,4′-Dichlorobiphenyl-4-yl)carbonyl]azetidin-3-yl}-4-(phenylcarbonyl)piperazine], in experiment [1], the 2-AG accumulation, % of vehicle control at 0.1 µM is 173%; the 2-AG accumulation, % of vehicle control at 1 µM is 168%; the 2-AG accumulation, % of vehicle control at 10 µM amounted to 277%. Besides, the Kd in experiment [2] (setting [8]) amounted to 0.025 µM. Besides, the inhibition in vivo at 30 mg/kg in experiment [3] (setting [6]) was found to be 39.1%. In addition, the inhibition in vivo at 30 mg/kg in experiment [3] (setting [7]) came to 39.7%. In experiment [4], this compound registered a 50% inhibitory concentration (IC50) of 0.0147 µM.
On to `Cc1c(C(=O)N2CC(N3CCN(C(=O)c4ccc[nH]4)CC3)C2)sc2cc(C(F)(F)F)ccc12` [Cpd 657, 1-(1-{[3-Methyl-6-(trifluoromethyl)-1-benzothiophen-2-yl]carbonyl}azetidin-3-yl)-4-(1H-pyrrol-2-ylcarbonyl)piperazine], for which the 2-AG accumulation, % of vehicle control at 1 µM in experiment [1] amounted to 581%. For the same compound, the Kd was found to be 0.002 µM in experiment [2] (setting [8]) and 0.002 µM in experiment [2] (compound concentration measured by qNMR, read-out: MGL mutant ThermoFluor qKd (using qNMR conc.)). In addition, the inhibition in vivo at 30 mg/kg in experiment [3] (setting [6]) turned out to be 66%. Moreover, half-maximal inhibition in experiment [4] (IC50) was put at 0.009 µM.
As for `O=C(c1ccc(Oc2cccc(Cl)c2)c(F)c1)N1CC(N2CCN(C(=O)c3cscn3)CC2)C1` [Cpd 662], the 2-AG accumulation, % of vehicle control at 1 µM in experiment [1] turned out to be 274%. Besides, the Kd in experiment [2] (setting [8]) turned out to be 0.1 µM. The figures for the inhibition in vivo at 30 mg/kg in experiment [3] (setting [6]) and in experiment [3] (setting [7]) were 21% and 24%, respectively. This compound registered an IC50 in experiment [4] of 0.011 µM.
Turning to `O=C(c1cscn1)N1CCN(C2CN(C(=O)c3ccc(-c4ccccc4)cc3Cl)C2)CC1` [Cpd 1221], in experiment [1], the 2-AG accumulation, % of vehicle control at 0.1 µM was 198%; the 2-AG accumulation, % of vehicle control at 1 µM came to 198%; the 2-AG accumulation, % of vehicle control at 10 µM turned out to be 522%. In addition, in experiment [2] (setting [8]), the Kd stood at 0.081 µM. For the same compound, the inhibition in vivo at 30 mg/kg in experiment [3] (setting [6]) is 44.7%. For the same compound, in experiment [3] (setting [7]), the inhibition in vivo at 30 mg/kg worked out at 46.7%. This compound returned an IC50 in experiment [4] of 0.258 µM.
On to `O=C(c1ccc2c(ccn2-c2ccc(F)cc2F)c1)N1CC(N2CCN(C(=O)c3nccs3)CC2)C1` [Cpd 1364, 1-(2,4-Difluorophenyl)-5-({3-[4-(1,3-thiazol-2-ylcarbonyl)piperazin-1-yl]azetidin-1-yl}carbonyl)-1H-indole], for which, in experiment [1], the 2-AG accumulation, % of vehicle control at 1 µM is 944%. Besides, the Kd in experiment [2] (setting [8]) is 0.001 µM. For the same compound, the inhibition in vivo at 30 mg/kg in experiment [3] (setting [6]) is 17%. For the same compound, the IC50 in experiment [4] is less than 0.005 µM.

A word on the IC50: it is the concentration that inhibits the measured activity by half. Low values mean greater potency in that assay, high ones weaker potency in that assay.
